Earlier results on six compounds are cited in patent publication US6436936B1, “Methods and compositions for treating disorders, using optically pure (+) zopiclone” (Sepracor Inc., priority 1991, dated 2002).

The subject of this data set is mice. To be noted: reference agents, 3 per group, ten parameters scored, total score <40 of 60 denotes behavioral depression.

As for `CCCC(C)(COC(N)=O)COC(N)=O` [meprobamate], the ED100 is given as 300 mg/kg. For `COC(=O)[C@H]1[C@H]2C[C@@H]3c4[nH]c5cc(OC)ccc5c4CCN3C[C@H]2C[C@@H](OC(=O)c2cc(OC)c(OC)c(OC)c2)[C@@H]1OC` [reserpine], the ED100 is on record as 50 mg/kg. As to `CN1C(=O)CN=C(c2ccccc2)c2cc(Cl)ccc21` [diazepam], the ED100 is recorded as 50 mg/kg.

Turning to `O=C(CCCN1CCC(O)(c2ccc(Cl)cc2)CC1)c1ccc(F)cc1` [haloperidol], the ED100 was 10 mg/kg. With `CCCC(C)C1(CC)C(=O)NC(=O)NC1=O` (stereo not drawn) [pentobarbital], the ED100 is on record as 100 mg/kg.

Take `CCC1(c2ccccc2)CCC(=O)NC1=O` (stereo not drawn) [glutethimide]: the ED100 is 300 mg/kg.
